# Measured values reported in patent US9353089B2, “Compositions and methods for the treatment of malaria” (Saint Louis University, priority 2013, dated 2016).
# Like-named read-outs stand apart in the source and are kept apart here.
# What was measured:
# [1] = target: Plasmepsin-2 (PM-2; Plm II) (Plasmodium falciparum (isolate HB3), UniProt P46925); assay: Plasmepsin-2 enzyme inhibition assay; format: biochemical; conditions: read-out: PM-2 IC50
# Experimental: Plasmepsin-2 (PM-2; Plm II) and Plasmepsin (PM-4; Plm IV) expression and purification was performed following the published protocols (Istvan E S and Goldberg D E, 2005). The final purified protein was activated by diluting the protein to 0.3 mg/mL in activating buffer (0.1 M citrate pH 4.5, 0.1% Tween-20, 50 mM dithiothreitol) and incubated at room temperature for 40 min, then the activated enzyme was diluted in assay buffer (50 mM sodium acetate pH 4.7, 0.01% Tween-20). The enzymatic inhibition reaction was performed in 384 well plates with a total volume of 20 μl. 10 μl of diluted PM-2 or PM-4 enzyme was added to the 384-well plate except blank wells (blank wells add 10 μL of assay buffer) and 20 nL of serials of diluted 1000× compounds were added to the wells with 520 Echo® Liquid Handling System (Labcyte Inc.). 10 μL PM-2 peptide substrate (AnaSpec, Cat#, 62050) with assay buffer was then added to final concentration of 20 μM to start the reaction. After incubation the reaction at room temperature for 60 min, the fluorescence intensity at Ex/Em=360 nm/535 nm was measured using EnVision multilabel plate reader (Perkin-Elmer). The IC50 values were obtained using Graph Pad Prism 4 and are reported in Tables 8 and 9 below as PM-2 IC50 values.
# recombinant human BACE1 = recombinant human BACE1 (Homo sapiens, UniProt P56817); assay: β-Secretase (BACE1) enzyme inhibition FRET assay; format: biochemical; conditions: Table 13; read-out: BACE1 IC50
# Experimental: The enzymatic inhibition activity assays were determined using the fluorescence resonance energy transfer (FRET) assay. The assays were performed in a 384-well plate format. […] CatD and CatE were activated by incubation in assay buffer (0.1 M NaOAc, 0.2 M NaCl, pH 3.5) at room temperature for 30 min. Subsequently, the rhBACE-1 substrate (R&D Systems, catalog# ES004), the Cathepsin D and Cathepsin E substrate (R&D Systems, Catalog # ES001) were added accordingly to final concentration 20 μM to initiate the reaction. After 60 min incubation at room temperature, the time-resolved fluorescence at Ex/Em=360 nm/460 nm was measured on an EnVision multilabel plate reader (Perkin-Elmer). The analytical software, GraphPad Prism 5.0 (GraphPad Software, Inc., USA) was used to generate IC50 values via non-linear regression analysis, which are reported in Tables 8-13 below as BACE1 IC50 values.
# [2] = tested on: Plasmodium falciparum 3D7 (CQ-sensitive); assay: In vitro antimalarial assay (malaria SYBR Green I-based fluorescence, MSF), 3D7; format: cell-based
# Experimental: Stock solutions of each test drug were prepared in DMSO at a concentration of 20 mM. The drug solutions were serially diluted with culture medium and distributed to asynchronous parasite cultures on 96-well plates in quadruplicate in a total volume of 100 μL to achieve 0.5% parasitemia with a 2% hematocrit in a total volume of 100 pt. […] After incubation, 100 μL of lysis buffer with 0.2 μL/mL SYBR Green I was added to each well.
# Antimalarial potency of compounds was determined by this technique for both Plasmodium falciparum 3D7 (CQ-sensitive) and Dd2 (multi-drug resistant) strains.
# [3] = 3D7, read-out: 3D7 IC50 (μM), Table 13
# [4] = 3D7, read-out: Pf3D7 IC50 (μM), Table 10
# [5] = 3D7, Table 13, read-out: 3D7 IC50
# [6] = 3D7, Table 11, read-out: Pf 3D7 IC50
# [7] = 3D7, Table 10, read-out: Pf3D7 IC50
# [8] = 3D7, Table 12, read-out: 3D7 IC50
# Sequence of Plasmepsin-2 (PM-2; Plm II) (P46925 125-453 limits assumed): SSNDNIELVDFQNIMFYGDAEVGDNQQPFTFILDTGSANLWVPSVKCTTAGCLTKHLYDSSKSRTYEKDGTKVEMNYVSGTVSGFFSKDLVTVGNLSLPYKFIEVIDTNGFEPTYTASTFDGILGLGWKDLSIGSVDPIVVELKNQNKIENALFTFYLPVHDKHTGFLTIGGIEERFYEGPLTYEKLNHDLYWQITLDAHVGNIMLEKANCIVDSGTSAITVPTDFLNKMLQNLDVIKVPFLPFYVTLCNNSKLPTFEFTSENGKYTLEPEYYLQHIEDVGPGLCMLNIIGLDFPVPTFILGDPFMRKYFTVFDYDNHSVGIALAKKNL
# Sequence of recombinant human BACE1 (P56817 46-501 limits assumed): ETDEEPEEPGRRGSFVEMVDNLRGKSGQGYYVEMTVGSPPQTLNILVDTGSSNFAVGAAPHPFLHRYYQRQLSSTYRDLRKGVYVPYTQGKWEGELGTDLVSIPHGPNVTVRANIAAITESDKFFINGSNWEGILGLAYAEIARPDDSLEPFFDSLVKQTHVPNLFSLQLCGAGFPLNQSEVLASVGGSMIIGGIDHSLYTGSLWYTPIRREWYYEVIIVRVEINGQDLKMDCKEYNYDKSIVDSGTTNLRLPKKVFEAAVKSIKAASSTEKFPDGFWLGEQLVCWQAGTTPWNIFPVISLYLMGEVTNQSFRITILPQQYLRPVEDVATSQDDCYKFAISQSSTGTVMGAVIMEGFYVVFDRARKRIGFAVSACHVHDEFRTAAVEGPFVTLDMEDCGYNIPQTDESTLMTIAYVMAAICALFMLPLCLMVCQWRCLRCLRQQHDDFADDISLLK
Compound,IC50 ([1]; Table 13),"IC50 [2, 5]",also measured
"N=C1NC(c2ccccc2)(c2ccccc2)C(=O)N1C1CCCCC1 [Example 100, 3-cyclohexyl-2-imino-5,5-diphenyl-imidazolidin-4-one]",28.7 nM,–,"IC50 (recombinant human BACE1): > 10 µM; IC50 [2, 3]: 3.85 µM; IC50 [2, 4]: 3.85 µM"
"COc1ccc(C2(c3ccc(OC)cc3)NC(=N)N(C3CC3)C2=O)cc1 [Example 158, 3-cyclopropyl-2-imino-5,5-bis(4-methoxyphenyl)-imidazolidin-4-one]",392 nM,–,"IC50 (recombinant human BACE1): > 10 µM; IC50 [2, 3]: 4.11 µM; IC50 [2, 4]: 4.11 µM"
"COc1ccc(C2(c3cccc(-c4ccncc4)c3)NC(=N)N(C3CCCCC3)C2=O)cc1 (stereo not drawn) [Example 172, 3-cyclohexyl-2-imino-5-(4-methoxyphenyl)-5-[3-(pyridin-4-yl)phenyl]-imidazolidin-4-one]",9.64 nM,0.533 µM,–
"COc1ccc(C2(c3ccc(OC)c(OC)c3)NC(=N)N(C3CCCCC3)C2=O)cc1OC [Example 173, 3-cyclohexyl-5,5-bis(3,4-dimethoxy-phenyl)-2-imino-imidazolidin-4-one]",54.7 nM,0.614 µM,–
"COc1ccc(C2(c3cccc(-c4ccccc4)c3)NC(=N)N(C3CCCCC3)C2=O)cc1 (stereo not drawn) [Example 177, 3-cyclohexyl-2-imino-5-(4-methoxyphenyl)-5-(3-phenylphenyl)-imidazolidin-4-one]",11.7 nM,1.49 µM,"IC50 [2, 6]: 1.49 µM"
"N=C1NC(c2ccccc2)(c2ccccc2)C(=O)N1C1CCOCC1 [Example 198, 2-imino-3-(oxan-4-yl)-5,5-diphenyl-imidazolidin-4-one]",118 nM,> 2.5 µM,–
"N=C1NC(c2ccc(OC(F)(F)F)cc2)(c2ccc(OC(F)(F)F)cc2)C(=O)N1C1CCCCC1 [Example 201, 3-cyclohexyl-2-imino-5,5-bis[4-(trifluoromethoxy)-phenyl]imidazolidin-4-one]",55.1 nM,2.2 µM,"IC50 [2, 6]: 2.2 µM"
"N=C1NC(c2ccccc2Cl)(c2ccccc2Cl)C(=O)N1C1CCCCC1 [Example 202, 5,5-bis(2-chlorophenyl)-3-cyclohexyl-2-iminoimidazolidin-4-one]",6750 nM,0.349 µM,–
"COc1ccc(C2(c3ccc(OC)cc3)NC(=N)N(Cc3ccncc3)C2=O)cc1 [Example 203, 2-imino-5,5-bis(4-methoxyphenyl)-3-(pyridin-4-ylmethyl)-imidazolidin-4-one]",14.9 nM,1.13 µM,–
"COc1ccc(C2(c3ccc(OC)cc3)NC(=N)N(C3CCC3)C2=O)cc1 [Example 204, 3-cyclobutyl-2-imino-5,5-bis(4-methoxyphenyl)-imidazolidin-4-one]",67.4 nM,0.722 µM,"IC50 [2, 7]: 0.722 µM"
"COc1ccc(C2(c3cccc(-c4ccccn4)c3)NC(=N)N(C3CCCCC3)C2=O)cc1 (stereo not drawn) [Example 210, 3-cyclohexyl-2-imino-5-(4-methoxyphenyl)-5-[3-(pyridin-2-yl)-phenyl]imidazolidin-4-one]",5.47 nM,1.81 µM,"IC50 [2, 6]: 1.81 µM"
"N=C1NC(c2ccccc2)(c2cccc(-c3ccncc3)c2)C(=O)N1C1CCCCC1 (stereo not drawn) [Example 211, 3-cyclohexyl-2-imino-5-phenyl-5-[3-(pyridin-4-yl)phenyl]-imidazolidin-4-one]",14.1 nM,1.03 µM,–
"N=C1NC(c2ccccc2)(c2cccc(-c3ccccc3)c2)C(=O)N1C1CCCCC1 (stereo not drawn) [Example 212, 3-cyclohexyl-2-imino-5-phenyl-5-(3-phenylphenyl)-imidazolidin-4-one]",12.3 nM,1.71 µM,–
"COc1cccc(C2(c3cccc(-c4cccnc4)c3)NC(=N)N(C3CCCCC3)C2=O)c1 (stereo not drawn) [Example 214, 3-cyclohexyl-2-imino-5-(3-methoxyphenyl)-5-[3-(pyridin-3-yl)phenyl]-imidazolidin-4-one]",12 nM,0.787 µM,"IC50 [2, 6]: 0.787 µM"
"COc1ccc(C2(c3ccc(OC)cc3)NC(=N)N(Cc3cccnc3)C2=O)cc1 [Example 219, 2-imino-5,5-bis(4-methoxyphenyl)-3-(pyridin-3-ylmethyl)-imidazolidin-4-one]",9.62 nM,0.582 µM,–
"COc1ccc(C2(c3ccc(OC)cc3)NC(=N)N(C3CCCCCC3)C2=O)cc1 [Example 220, 3-cycloheptyl-2-imino-5,5-bis(4-methoxyphenyl)-imidazolidin-4-one]",2.37 nM,0.427 µM,"IC50 [2, 7]: 0.427 µM"
"N=C1NC(c2ccccc2)(c2cccc(OCc3ccccc3)c2)C(=O)N1C1CCCCC1 (stereo not drawn) [Example 228, 5-[3-(benzyloxy)-phenyl]-3-cyclohexyl-2-imino-5-phenylimidazolidin-4-one]",2.89 nM,0.641 µM,"IC50 [2, 6]: 0.641 µM"
"COc1ccc(C2(c3ccc(OC)cc3)NC(=N)N(Cc3ccccc3OC)C2=O)cc1 [Example 248, 2-imino-5,5-bis(4-methoxyphenyl)-3-[(2-methoxyphenyl)-methyl]imidazolidin-4-one]",28 nM,0.294 µM,–
"COc1ccc(C2(c3ccc(OC)cc3)NC(=N)N(CC(C)(C)C)C2=O)cc1 [Example 252, 3-(2,2-dimethylpropyl)-2-imino-5,5-bis(4-methoxyphenyl)-imidazolidin-4-one]",5.28 nM,0.266 µM,–
"COc1ccc(C2(c3ccc(OC)cc3)NC(=N)N(CC3CCCO3)C2=O)cc1 (stereo not drawn) [Example 274, 2-imino-5,5-bis(4-methoxyphenyl)-3-(oxolan-2-ylmethyl)-imidazolidin-4-one]",11.4 nM,0.633 µM,–
"COc1ccc(C2(c3ccc(OC)cc3)NC(=N)N(CC34CC5CC(CC(C5)C3)C4)C2=O)cc1 [Example 276, 3-(adamantan-1-ylmethyl)-2-imino-5,5-bis(4-methoxyphenyl)-imidazolidin-4-one]",2 nM,–,"IC50 (recombinant human BACE1): 7.85 µM; IC50 [2, 3]: 0.336 µM"
"COc1ccc(C2(c3ccc(OC)cc3)NC(=N)N(Cc3cccc(C)c3C)C2=O)cc1 [Example 277, 3-[(2,3-dimethyl-phenyl)methyl]-2-imino-5,5-bis(4-methoxyphenyl)-imidazolidin-4-one]",4.39 nM,1.57 µM,–
"COc1ccc(C2(c3ccc(OC)cc3)NC(=N)N(Cc3c(C)cccc3C)C2=O)cc1 [Example 278, 3-[(2,6-dimethyl-phenyl)methyl]-2-imino-5,5-bis(4-methoxyphenyl)-imidazolidin-4-one]",2.76 nM,1.04 µM,–
"COc1ccc(C2(c3ccc(OC)cc3)NC(=N)N(Cc3ncccc3C)C2=O)cc1 [Example 302, 2-imino-5,5-bis(4-methoxyphenyl)-3-[(3-methylpyridin-2-yl)methyl]imidazolidin-4-one]",48.8 nM,–,"IC50 (recombinant human BACE1): > 10 µM; IC50 [2, 3]: 1.07 µM"
"COc1ccc(C2(c3ccc(OC)cc3)NC(=N)N(Cc3ccccc3C)C2=O)cc1 [Example 303, 2-imino-5,5-bis(4-methoxyphenyl)-3-[(2-methylphenyl)-methyl]imidazolidin-4-one]",3.1 nM,1.01 µM,–
"COc1ccc(C2(c3ccc(OC)cc3)NC(=N)N(Cc3ccccc3C(F)(F)F)C2=O)cc1 [Example 304, 2-imino-5,5-bis(4-methoxyphenyl)-3-{[2-(trifluoromethyl)-phenyl]methyl}-imidazolidin-4-one]",1.88 nM,1.34 µM,–
"COc1cccc(-c2cccc(C3(c4ccccc4)NC(=N)N(C)C3=O)c2)c1 (stereo not drawn) [Example 327, 2-imino-5-[3-(3-methoxyphenyl)phenyl]-3-methyl-5-phenyl-imidazolidin-4-one]",–,–,"IC50 ([1]; Table 12): 240 nM; IC50 [2, 8]: 4.97 µM"
"COc1cccc(-c2cccc(C3(C4CC4)NC(=N)N(C)C3=O)c2)c1 (stereo not drawn) [Example 330, 5-cyclopropyl-2-imino-5-[3-(3-methoxyphenyl)-phenyl]-3-methyl-imidazolidin-4-one]",–,–,"IC50 ([1]; Table 12): 751 nM; IC50 [2, 8]: ~2.4 µM"
